In patent publication US20190151371A1, “PROCESS FOR CONTINUOUS CELL CULTURE OF ISLET CELLS” (Georgetown University, priority 2016, published 2019):

Assays:
[1] = tested on: airway epithelial cells; conditions: cited from earlier work
[2] = tested on: islet cells; test: Islet cell culture with upstream or downstream ROCK pathway inhibitor in place of a ROCK inhibitor; assay type: cell-based, human; conditions: used in the culture conditions in place of a ROCK inhibitor
Excerpt: As used herein, inhibiting ROCK can mean to reduce the activity, function or expression of at least one of ROCK1 or ROCK2. […] In general, ROCK phosphorylates LIM kinase and myosin light chain (MLC) phosphatase after being activated through binding of GTP-bound Rho. One embodiment of the present invention thus involves blocking the upstream pathway of ROCK1 and/or ROCK2, for example GTP-bound Rho, such that ROCK1 and/or ROCK2 is not activated or its activity is reduced over untreated cells. Other upstream effectors include but are not limited to, integrins, growth factor receptors, including but not limited to, TGF-beta and EGFR, cadherins, G protein coupled receptors and the like. Another embodiment of the present invention thus involves blocking the activity, function or expression of downstream effector molecules of activated ROCK1 and/or ROCK2 such that ROCK1 and/or ROCK2 cannot propagate any signal or can only propagate a reduced signal over untreated cells. Downstream effectors include but are not limited to, Myosin phosphatase-targeting protein (MYPT), vimentin, LIMK, Myosin light chain kinase, NHE1, cofilin, Myosin II and the like. […] Upstream or downstream inhibition of ROCK, in place of direct ROCK inhibition and in conjunction with the other culture conditions described and required herein, may or may not generate conditionally immortalized islet cells. […]

Row | Compound | effect on airway epithelial cells [1] | effect on cell differentiation and proliferation in vitro [2]
1 | O=S(=O)(c1cccc2cnccc12)N1CCCNCC1 [HA 1077, fasudil] | induces membrane ruffling, loss of actin stress fibers and apoptosis | –
2 | C[C@@H](N)[C@H]1CC[C@H](C(=O)Nc2ccncc2)CC1 [Y-27632] | induces membrane ruffling, loss of actin stress fibers and apoptosis | –
3 | Cc1ccc2c(c1)C(=O)C1(O)CCN(c3ccccc3)C1=N2 (stereo not shown) [blebbistatin] | – | allow the cells to bypass differentiation and allow proliferation in vitro
4 | C3 transferase | – | allow the cells to bypass differentiation and allow proliferation in vitro
